SMILES: CC[C@H](C)[C@H](NC(=O)[C@H](Cc1ccc(O)cc1)NC(=O)[C@H](CC(=O)O)NC(=O)[C@H](CCCCN)NC(=O)[C@H](CO)NC(=O)[C@H](CCC(N)=O)NC(=O)[C@H](CCC(N)=O)NC(=O)[C@H](CC(C)C)NC(=O)[C@H](CO)NC(=O)[C@H](CCC(N)=O)NC(=O)[C@H](CC(N)=O)NC(=O)[C@H](CCSC)NC(=O)[C@H](CO)NC(=O)[C@H](CO)NC(=O)[C@@H](NC(=O)[C@H](CCC(N)=O)NC(=O)[C@H](CO)NC(=O)[C@H](CO)NC(=O)[C@@H](NC(=O)[C@H](CC(=O)O)NC(=O)[C@@H](NC(=O)[C@H](CCCCN)NC(=O)CCOCCOCCOCCOCCOCCOCCOCCOCCOCCOCCOCCOCCNC(C)=O)C(C)C)[C@@H](C)CC)[C@@H](C)CC)C(=O)N[C@@H](CCCCN)C(=O)N[C@@H](CCC(=O)O)C(=O)N[C@@H](C)C(=O)N[C@@H](CCC(N)=O)C(=O)N[C@@H](CCCNC(=N)N)C(=O)N[C@@H](CC(C)C)C(=O)N[C@@H](CC(C)C)C(=O)N[C@@H](CC(=O)O)C(=O)N[C@H](C(=O)N[C@H](C(=O)N[C@@H](CC(N)=O)C(=O)N1CCC[C@H]1C(=O)N[C@@H](CO)C(=O)N[C@@H](CC(C)C)C(N)=O)C(C)C)[C@@H](C)O [N-PEG NiV FC2]
- number of syncytia per cell monolayer (in words) (live NiV): largely unchanged
- syncytial morphology and size (in words) (live NiV): dramatic and robust reduction in syncytial size
- number of syncytia per cell monolayer (in words) (live HeV): largely unchanged
- syncytial morphology and size (in words) (live HeV): dramatic and robust reduction in syncytial size

— article PMC1208959 (Virology Journal, 2005)
